{
  "source": "ChEMBL document CHEMBL1143633",
  "about": "“Synthesis and cytotoxic evaluation of combretafurazans” (J Med Chem, 2005)",
  "tested_on": "SH-SY5Y",
  "assay": "Cytotoxicity against SH-SY5Y human neuroblastoma cell line was determined",
  "format": "functional, cell-based",
  "data": [
    {"smiles": "COc1ccc(-c2nonc2-c2cc(OC)c(O)c(OC)c2)cc1O", "values": [
      {"measurement": "IC50", "result": 17.5, "unit": "nM"}
    ]},
    {"smiles": "COc1ccc(C(=O)C(=O)c2cc(OC)c(OC)c(OC)c2)cc1O", "values": [
      {"measurement": "IC50", "result": 524, "unit": "nM"}
    ]},
    {"smiles": "COc1ccc(-c2nonc2-c2cc(OC)c(O)c(OC)c2)cc1", "values": [
      {"measurement": "IC50", "result": 196, "unit": "nM"}
    ]},
    {"smiles": "COc1ccc(-c2nonc2-c2cc(OC)c(OC)c(OC)c2)cc1O", "values": [
      {"measurement": "IC50", "result": 1.4, "unit": "nM"}
    ]},
    {"smiles": "COc1ccc(C(=N/O)/C(=N\\O)c2cc(OC)c(OC)c(OC)c2)cc1O", "values": [
      {"measurement": "IC50", "result": 254, "unit": "nM"}
    ]},
    {"smiles": "COc1ccc(-c2nonc2-c2cc(OC)c(OC)c(OC)c2)cc1[N+](=O)[O-]", "values": [
      {"measurement": "IC50", "result": 72.5, "unit": "nM"}
    ]},
    {"smiles": "COc1ccc(-c2nonc2-c2cc(OC)c(OC)c(OC)c2)cc1N", "values": [
      {"measurement": "IC50", "result": 1.6, "unit": "nM"}
    ]},
    {"smiles": "COc1ccc(-c2nonc2-c2cc(OC)c(OC)c(OC)c2)cc1", "values": [
      {"measurement": "IC50", "result": 8.9, "unit": "nM"}
    ]},
    {"smiles": "COc1ccc(/C=C\\c2cc(OC)c(OC)c(OC)c2)cc1O", "note": "[COMBRETASTATIN A4]", "values": [
      {"measurement": "IC50", "result": 5.8, "unit": "nM"}
    ]}
  ]
}
